Activity calls are given as the source filed them.
What was measured:
[1] = biological target: T1, Short transient receptor potential channel 4 (Mus musculus, UniProt Q9QUQ5); experiment: block of DAMGO-driven TRPC4 calcium entry – cell-based, HEK293 TRPC4/mu-opioid, Fluo-4 calcium, dose response (AID 434942); assay type: functional;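 note: potency of inhibitors blocking the TRPC4 calcium response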
T1 sequence (Q9QUQ5 whole entry): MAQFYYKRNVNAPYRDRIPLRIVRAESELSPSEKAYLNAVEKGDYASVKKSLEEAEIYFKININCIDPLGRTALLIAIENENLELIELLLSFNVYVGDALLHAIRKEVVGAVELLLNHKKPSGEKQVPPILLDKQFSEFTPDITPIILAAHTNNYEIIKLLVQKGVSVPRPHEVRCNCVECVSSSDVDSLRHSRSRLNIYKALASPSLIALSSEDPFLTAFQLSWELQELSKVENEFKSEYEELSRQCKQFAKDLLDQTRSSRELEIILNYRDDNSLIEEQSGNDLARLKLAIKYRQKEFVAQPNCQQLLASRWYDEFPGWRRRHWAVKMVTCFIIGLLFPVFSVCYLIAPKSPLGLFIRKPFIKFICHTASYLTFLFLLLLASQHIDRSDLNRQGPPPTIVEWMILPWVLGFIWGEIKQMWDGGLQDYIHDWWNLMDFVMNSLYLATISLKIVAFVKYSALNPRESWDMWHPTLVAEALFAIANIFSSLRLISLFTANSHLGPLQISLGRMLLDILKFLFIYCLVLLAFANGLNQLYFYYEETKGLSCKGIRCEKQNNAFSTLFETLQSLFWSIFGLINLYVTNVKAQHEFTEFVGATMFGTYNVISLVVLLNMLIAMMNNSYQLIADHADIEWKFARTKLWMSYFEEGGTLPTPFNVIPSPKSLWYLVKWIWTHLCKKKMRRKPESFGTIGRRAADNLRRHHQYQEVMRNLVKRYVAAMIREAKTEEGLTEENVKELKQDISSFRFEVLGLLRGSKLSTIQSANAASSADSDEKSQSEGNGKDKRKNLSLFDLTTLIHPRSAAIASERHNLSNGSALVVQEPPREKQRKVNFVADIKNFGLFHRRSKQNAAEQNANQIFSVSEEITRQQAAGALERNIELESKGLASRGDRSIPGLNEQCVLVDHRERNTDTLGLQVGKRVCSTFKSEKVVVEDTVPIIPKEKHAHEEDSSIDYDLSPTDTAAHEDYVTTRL

[2] = biological target: T2, Calpain-2 catalytic subunit (Sus scrofa, UniProt P43367); experiment: m-calpain protease blockers, concentration series – biochemical, fluorogenic peptide substrate, dose response (AID 1420); assay type: functional
T2 sequence (P43367 whole entry): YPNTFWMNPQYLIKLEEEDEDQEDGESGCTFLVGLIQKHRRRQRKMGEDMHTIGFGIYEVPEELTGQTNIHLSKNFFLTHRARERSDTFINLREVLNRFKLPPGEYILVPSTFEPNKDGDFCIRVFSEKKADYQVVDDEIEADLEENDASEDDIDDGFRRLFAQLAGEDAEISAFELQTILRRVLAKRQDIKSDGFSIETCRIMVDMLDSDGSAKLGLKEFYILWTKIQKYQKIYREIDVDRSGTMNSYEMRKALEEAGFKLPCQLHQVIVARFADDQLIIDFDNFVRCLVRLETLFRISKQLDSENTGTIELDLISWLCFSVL

[3] = cells; assay type: functional, cell-based
[4] = biological target: T3, High affinity choline transporter 1 (Homo sapiens, UniProt Q9GZV3); experiment: human choline transporter blockers, potency – cell-based, 5-point CRC, membrane potential dye, dose response (AID 504840); assay type: functional
T3 sequence (Q9GZV3 whole entry): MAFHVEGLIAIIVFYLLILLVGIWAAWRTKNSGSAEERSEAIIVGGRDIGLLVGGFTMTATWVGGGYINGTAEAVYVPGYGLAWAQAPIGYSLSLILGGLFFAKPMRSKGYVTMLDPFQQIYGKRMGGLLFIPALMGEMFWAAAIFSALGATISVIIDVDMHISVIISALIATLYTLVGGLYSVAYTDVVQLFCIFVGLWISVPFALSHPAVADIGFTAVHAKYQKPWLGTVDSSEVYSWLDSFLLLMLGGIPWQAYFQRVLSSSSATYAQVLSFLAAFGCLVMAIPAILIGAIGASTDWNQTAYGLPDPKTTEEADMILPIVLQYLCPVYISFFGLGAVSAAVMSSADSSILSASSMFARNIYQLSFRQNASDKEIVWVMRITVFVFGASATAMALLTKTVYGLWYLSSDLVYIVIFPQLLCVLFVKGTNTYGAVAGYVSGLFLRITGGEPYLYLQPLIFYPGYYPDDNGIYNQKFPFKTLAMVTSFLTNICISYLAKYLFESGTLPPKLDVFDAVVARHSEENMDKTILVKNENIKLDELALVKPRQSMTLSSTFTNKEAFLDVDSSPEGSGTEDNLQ

[5] = cells; assay type: functional, cell-based; remark: listed apart in the source
[6] = cells; assay type: functional
[7] = tested on: HEK293; experiment: EBV LMP1 TES2 canonical NF-kB signalling blockers – cell-based, HEK293, luciferase, cherry-pick, dose response (AID 588343); assay type: functional; settings: Homo sapiens
[8] = biological target: Cytochrome P450 2C19 (Homo sapiens, UniProt P33261); experiment: Cytochrome panel assay with activity outcomes. Panel member name: p450-cyp2c19 Compounds with AC50 equal or less than 10 uM are considered active; assay type: functional; settings: read-out: AC50
[9] = biological target: Melanocortin receptor 4 (Homo sapiens, UniProt P32245); assay type: functional, cell-based;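 note: Cell-based assay with luminescence read-out, confirmatory dose-response testing for agonist activity of biased ligands at MC4R; human U2OS cells with tagged receptor and beta-arrestin; potency of agonists that increase receptor coupling to beta-arrestin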
[10] = biological target: Cytochrome P450 2C9 (Homo sapiens, UniProt P11712)
[11] = microbe, parasite or virus in culture; assay type: functional; settings: Mycobacterium tuberculosis
[12] = biological target: Cytochrome P450 3A4 (Homo sapiens, UniProt P08684);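 note: CYP3A4 tested as one member of a cytochrome P450 panel screen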
[13] = biological target: Genome polyprotein (dengue virus type 2, UniProt P29990); experiment: flavivirus cap methylation enzyme inhibition – biochemical, confirmation dose response, primary screen (AID 588689); assay type: functional
[14] = biological target: T4, Ubiquitin-conjugating enzyme E2 N (Homo sapiens, UniProt P61088); assay type: functional;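 note: Dose-response confirmation in a TR-FRET assay detecting UBC13-driven polyubiquitin chain formation, inhibition measured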
T4 sequence (P61088 whole entry): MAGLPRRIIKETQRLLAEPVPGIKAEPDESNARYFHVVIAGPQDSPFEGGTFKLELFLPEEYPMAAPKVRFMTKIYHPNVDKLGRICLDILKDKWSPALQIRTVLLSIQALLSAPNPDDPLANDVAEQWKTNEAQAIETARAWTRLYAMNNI

[15] = biological target: T1, Short transient receptor potential channel 4; experiment: calcium entry via TRPC4 opening agents – cell-based, HEK293 TRPC4/mu-opioid, Fluo-4 calcium, dose response (AID 434937); assay type: functional
[16] = biological target: T5, Rac GTPase-activating protein 1 (Homo sapiens, UniProt Q9H0H5); experiment: blockers of MgcRacGAP-driven Rac1 GTP hydrolysis – biochemical, ADP Hunter fluorescence, primary and confirmatory, confirmation (AID 624330); assay type: functional
T5 sequence (Q9H0H5 whole entry): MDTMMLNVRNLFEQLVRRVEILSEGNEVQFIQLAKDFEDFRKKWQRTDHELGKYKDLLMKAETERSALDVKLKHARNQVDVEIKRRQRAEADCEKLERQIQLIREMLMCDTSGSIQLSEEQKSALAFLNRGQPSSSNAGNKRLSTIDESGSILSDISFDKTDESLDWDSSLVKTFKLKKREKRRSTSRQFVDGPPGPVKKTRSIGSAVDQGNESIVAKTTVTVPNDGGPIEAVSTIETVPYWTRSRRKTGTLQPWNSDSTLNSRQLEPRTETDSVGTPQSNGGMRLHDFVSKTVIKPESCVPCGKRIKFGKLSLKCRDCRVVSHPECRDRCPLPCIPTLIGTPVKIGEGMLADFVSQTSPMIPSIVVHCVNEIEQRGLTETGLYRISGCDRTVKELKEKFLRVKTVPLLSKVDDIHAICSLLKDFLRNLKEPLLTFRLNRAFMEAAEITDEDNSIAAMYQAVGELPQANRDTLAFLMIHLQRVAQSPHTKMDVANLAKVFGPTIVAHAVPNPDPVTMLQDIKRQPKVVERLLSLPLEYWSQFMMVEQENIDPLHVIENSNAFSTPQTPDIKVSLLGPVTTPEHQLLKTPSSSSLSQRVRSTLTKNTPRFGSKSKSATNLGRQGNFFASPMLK

[17] = blockade of melanocortin 4 receptor signaling – cell-based, plate reader, cherry pick, counter-screen for LGR2 antagonist project, dose response (AID 743444); assay type: functional;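 note: transfected HEK 293 cells stimulated with alpha-MSH peptide; potency of inhibitors of the alpha-MSH evoked signal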
[18] = blockers of bursicon-stimulated LGR2 cAMP reporter – cell-based, HEK293, CRE-luciferase reporter, cherry pick, set 2, dose response (AID 743343); assay type: functional;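 note: transfected cells were stimulated with diluted bursicon conditioned medium after compound addition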
[19] = tested on: Streptococcus; experiment: GAS UMAA2166 growth inhibition – luminescence, BacTiterGlo, counter-screen for streptokinase expression inhibitor project, dose response (AID 1915); assay type: functional, organism-based;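 note: potency for reduction of bacterial viability or growth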
[20] = tested on: Streptococcus sp. 'group A'; experiment: Streptococcus pyogenes SK(-)GAS viability under kanamycin – luminescence, BacTiterGlo, confirmation, counter-screen for streptokinase expression inhibitor project, dose response (AID 1900); assay type: functional, organism-based

Chain of Genome polyprotein (P29990 2492-3391 limits assumed): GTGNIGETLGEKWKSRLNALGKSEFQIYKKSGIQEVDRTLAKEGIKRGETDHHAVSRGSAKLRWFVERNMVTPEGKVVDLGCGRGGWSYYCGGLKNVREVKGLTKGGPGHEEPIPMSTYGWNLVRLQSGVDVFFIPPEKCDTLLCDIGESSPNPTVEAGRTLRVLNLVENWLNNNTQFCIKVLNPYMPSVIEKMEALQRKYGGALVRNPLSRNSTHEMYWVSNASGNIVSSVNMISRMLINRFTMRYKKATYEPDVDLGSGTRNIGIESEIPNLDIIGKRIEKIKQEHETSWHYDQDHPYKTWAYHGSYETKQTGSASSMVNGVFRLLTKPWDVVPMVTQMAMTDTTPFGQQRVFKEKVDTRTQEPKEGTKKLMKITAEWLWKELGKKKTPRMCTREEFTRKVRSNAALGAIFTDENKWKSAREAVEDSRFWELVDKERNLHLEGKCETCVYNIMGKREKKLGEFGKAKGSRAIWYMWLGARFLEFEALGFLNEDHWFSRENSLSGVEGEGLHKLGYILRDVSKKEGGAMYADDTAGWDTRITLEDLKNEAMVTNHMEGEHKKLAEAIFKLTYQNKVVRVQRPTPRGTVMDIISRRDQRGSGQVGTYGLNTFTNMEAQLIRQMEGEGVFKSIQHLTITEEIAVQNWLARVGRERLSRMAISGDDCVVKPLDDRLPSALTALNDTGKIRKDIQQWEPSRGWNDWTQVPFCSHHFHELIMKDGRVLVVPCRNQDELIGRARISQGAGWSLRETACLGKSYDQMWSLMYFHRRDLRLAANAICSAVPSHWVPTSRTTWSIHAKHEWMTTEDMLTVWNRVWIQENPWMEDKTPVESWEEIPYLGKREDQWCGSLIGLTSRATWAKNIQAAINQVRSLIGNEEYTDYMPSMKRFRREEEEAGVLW
Chain of Melanocortin receptor 4 (P32245 whole entry): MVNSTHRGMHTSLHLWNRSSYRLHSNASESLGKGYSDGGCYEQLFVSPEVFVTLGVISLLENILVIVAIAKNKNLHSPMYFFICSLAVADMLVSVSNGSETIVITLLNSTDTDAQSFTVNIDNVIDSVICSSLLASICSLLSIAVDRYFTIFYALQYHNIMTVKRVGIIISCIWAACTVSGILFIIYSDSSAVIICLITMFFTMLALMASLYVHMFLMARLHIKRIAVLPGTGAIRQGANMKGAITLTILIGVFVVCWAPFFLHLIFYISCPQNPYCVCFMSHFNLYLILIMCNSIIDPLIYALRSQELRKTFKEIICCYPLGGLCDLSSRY
Chain of Cytochrome P450 2C9 (P11712 whole entry): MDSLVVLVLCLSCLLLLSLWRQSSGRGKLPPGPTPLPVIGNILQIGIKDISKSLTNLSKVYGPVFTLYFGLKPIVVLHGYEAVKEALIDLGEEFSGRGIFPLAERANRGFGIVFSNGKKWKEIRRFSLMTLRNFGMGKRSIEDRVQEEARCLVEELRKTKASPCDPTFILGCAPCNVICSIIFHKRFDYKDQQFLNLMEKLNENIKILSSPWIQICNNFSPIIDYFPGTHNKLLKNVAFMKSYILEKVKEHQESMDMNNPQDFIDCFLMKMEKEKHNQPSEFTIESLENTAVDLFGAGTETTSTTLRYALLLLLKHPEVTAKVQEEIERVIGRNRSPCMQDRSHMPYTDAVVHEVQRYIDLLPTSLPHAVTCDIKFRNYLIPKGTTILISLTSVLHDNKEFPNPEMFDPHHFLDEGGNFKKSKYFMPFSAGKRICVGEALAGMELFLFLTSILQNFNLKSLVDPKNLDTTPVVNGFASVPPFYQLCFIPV
Chain of Cytochrome P450 2C19 (P33261 whole entry): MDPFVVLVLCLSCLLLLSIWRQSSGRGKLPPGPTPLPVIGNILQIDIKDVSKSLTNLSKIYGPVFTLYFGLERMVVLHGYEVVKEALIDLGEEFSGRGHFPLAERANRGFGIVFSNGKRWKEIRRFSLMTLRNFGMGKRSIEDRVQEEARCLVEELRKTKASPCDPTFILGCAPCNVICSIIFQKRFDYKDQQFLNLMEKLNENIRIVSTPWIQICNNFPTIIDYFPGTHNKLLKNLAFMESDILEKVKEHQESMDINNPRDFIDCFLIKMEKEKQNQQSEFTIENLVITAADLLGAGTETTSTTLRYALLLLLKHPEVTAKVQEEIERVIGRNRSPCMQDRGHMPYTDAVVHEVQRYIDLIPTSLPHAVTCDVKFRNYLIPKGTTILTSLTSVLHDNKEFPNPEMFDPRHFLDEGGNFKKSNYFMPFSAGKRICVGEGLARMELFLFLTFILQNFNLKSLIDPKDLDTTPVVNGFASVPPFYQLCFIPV
Chain of Cytochrome P450 3A4 (P08684 whole entry): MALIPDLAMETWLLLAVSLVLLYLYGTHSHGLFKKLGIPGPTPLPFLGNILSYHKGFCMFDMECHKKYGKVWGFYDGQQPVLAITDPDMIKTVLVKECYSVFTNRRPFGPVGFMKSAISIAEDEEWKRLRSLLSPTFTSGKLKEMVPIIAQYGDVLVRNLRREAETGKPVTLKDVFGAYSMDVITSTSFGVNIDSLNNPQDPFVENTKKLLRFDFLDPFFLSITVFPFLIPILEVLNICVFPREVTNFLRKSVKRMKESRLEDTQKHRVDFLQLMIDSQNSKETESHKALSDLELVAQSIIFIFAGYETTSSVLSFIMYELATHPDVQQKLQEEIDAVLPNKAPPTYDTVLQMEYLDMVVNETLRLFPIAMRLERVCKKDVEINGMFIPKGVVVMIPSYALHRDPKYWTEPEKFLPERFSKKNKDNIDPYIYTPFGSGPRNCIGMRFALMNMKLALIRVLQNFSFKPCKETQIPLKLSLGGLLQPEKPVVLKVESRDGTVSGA

## CC(C)C(=O)Nc1ccc(C(=O)Nc2nnc(C(C)(C)C)s2)cc1
[1]
  EC50: 0.237 µM (active)

## Cc1ccc(N2C(=O)CC(c3c[nH]c4ccccc34)C2=O)cc1 (configuration not stated)
[2]
  IC50: 12.1 µM (not active)

## O=C(Cn1ncc2c3ccccc3n(Cc3ccccc3F)c2c1=O)NCCN1CCOCC1
[3]
  EC50: > 350 µM (not active)
[4]
  IC50: 12 µM (active)
[5]
  EC50: > 350 µM (not active)

## Cc1onc(-c2ccccc2)c1C(=O)Nc1nnc(COc2ccc(Cl)cc2)s1
[6]
  IC50: 8.45 µM (active)

## COc1cc(C(=S)N2CCOCC2)cc(OC)c1OC(=O)c1ccc(F)cc1
[7]
  AC50: > 350 µM (inactive)

## O=C(Nc1cc(-c2nc3ccccc3s2)ccc1Cl)c1ccc2c(c1)OCO2
[8]
  AC50: 3.55 µM (inconclusive)
[9]
  EC50: > 89.2 µM (inactive)
[10]
  AC50: 1.78 µM (inconclusive)

## c1csc(-c2nc(NCC3CCCO3)c3ccccc3n2)c1 (configuration not stated)
[1]
  EC50: 4.73 µM (active)

## Cn1nc(C(=O)NNc2c(F)c(F)cc(F)c2F)c2ccccc2c1=O
[2]
  IC50: 5.53 µM (not active)

## FC(F)Oc1ccccc1N=C(S)Nc1cccc(Cl)c1Cl
[1]
  EC50: 7.5 µM (active)

## O=C(C1CCCN(c2ncnc3c2nc2n3CCCCC2)C1)N1CCN(c2ccc(Cl)cc2)CC1 (configuration not stated)
[11]
  CC50: > 40 µM (active)
[4]
  IC50: 4.57 µM (active)

## COc1ccc(C2CC(c3ccccc3)Nc3nc(NC(=O)c4cccs4)nn32)cc1 (configuration not stated)
[1]
  EC50: 1.06 µM (active)

## Nc1c(-c2cccs2)cnn1-c1nc(-c2ccc(Cl)cc2Cl)cs1
[12]
  AC50: 12.6 µM (inconclusive)
[9]
  EC50: > 89.2 µM (inactive)
[10]
  AC50: 20 µM (inconclusive)

## CCOc1ccc(N2C(=O)C(Cl)=C(N3CCOCC3)C2=O)cc1
[13]
  IC50: 29.4 µM (active)

## CC1Cc2ccccc2N1C(=S)NC(=O)c1ccco1 (configuration not stated)
[2]
  IC50: 0.535 µM (not active)

## CC1CCCCC1NC(=O)c1ccc(S(=O)(=O)N2CCCC2)cc1 (configuration not stated)
[4]
  IC50: 13.2 µM (active)

## O=C1Nc2cc(C(=O)NCCCN3CCOCC3)ccc2S/C1=C/c1cccc(Cl)c1
[11]
  CC50: > 40 µM (active)
[6]
  IC50: 27.8 µM (active)
[14]
  IC50: > 20 µM (inactive)

## Cc1ccc(SC[C@H](c2ccccc2)N2CCN(CCc3ccccc3)CCC2=O)cc1
[2]
  IC50: 7.19 µM (not active)

## COc1ccc(C(=O)C2CCCN(C3Cc4ccccc4C3)C2)cc1OC (configuration not stated)
[15]
  EC50: 1.68 µM (active)

## COc1ccccc1C(=O)Nc1ccc(C(=O)c2ccccc2)cc1
[2]
  IC50: 35.2 µM (not active)

## COc1ccc(F)cc1CN1CCN(C(=O)CCC(=O)Nc2nnc(C(C)C)s2)CC1
[15]
  EC50: 0.841 µM (active)

## CCN1CCN(c2ccc(S(=O)(=O)N3CCOCC3)cc2NC(=O)/C=C/c2ccc(OC)cc2OC)CC1
[15]
  EC50: 2.99 µM (active)

## CCCCNS(=O)(=O)c1ccc2[nH]c(SCC(=O)Nc3ccccc3Cl)nc2c1
[2]
  IC50: 18.5 µM (not active)

## CCCN(CCC)CCN=C(S)Nc1ccc2nc3n(c(=O)c2c1)CCCCC3
[15]
  EC50: 0.299 µM (active)

## C=CCn1c(CCNC(=O)c2ccco2)nc2ccccc21
[15]
  EC50: 1.68 µM (active)

## CCCOc1cccc(C(=O)NCCNC(=O)c2ccco2)c1
[1]
  EC50: 2.99 µM (active)

## CC1CCCN1CC#CC(O)(c1ccccc1)c1ccccc1 (configuration not stated)
[1]
  EC50: 0.188 µM (active)

## COc1cc(/C=C2\C(=O)N(c3cccc(C(=O)O)c3)N=C2C)ccc1OCc1ccccc1
[16]
  IC50: 43.9 µM (active)
[13]
  IC50: 7.99 µM (active)

## COc1ccc(-c2oc3ccc(-c4ccc5c(c4)OCO5)cc3c2C#CC2(O)CCCCC2)cc1
[9]
  EC50: > 89.2 µM (inactive)

## COc1ccc(NC(=O)COC(=O)c2c(NC(C)=O)sc(C)c2C)cc1
[9]
  EC50: > 89.3 µM (inactive)

## CC(=O)Nc1cc(-c2ccc(C(=O)N3CCOCC3)cc2)cn2c(-c3ccccc3)cnc12
[9]
  EC50: > 89.2 µM (inactive)

## COc1ccc(S(=O)(=O)N2CCCCN3[C@H](CO)[C@H](c4ccc(-c5cccnc5)cc4)[C@@H]3C2)cc1
[17]
  AC50: 25.6 µM (active)
[18]
  AC50: 20 µM (active)

## COc1ccccc1NS(=O)(=O)c1ccc(N/N=C/c2ccccc2OCC(=O)O)c([N+](=O)[O-])c1
[13]
  IC50: 56.5 µM (active)

## CC(C)C(=O)Nc1ccc(C(=O)N/N=C/c2cc(Br)cc(Br)c2O)cc1
[19]
  EC50: 2.04 µM (active)
[20]
  EC50: 1.65 µM (active)
[7]
  AC50: 16.7 µM (active)

## COc1ccc(OCC(=O)N/N=C2\CCc3ccccc32)cc1
[6]
  IC50: 42.9 µM (active)

— ChEMBL document CHEMBL1201862, “PubChem BioAssay data set” (2004)
